The source of these data is patent EP0079141A1, “Aminoresorcinol derivatives” (ONO PHARMACEUTICAL CO., LTD., priority 1981, dated 1983).

Where a name gives a salt, the structure may show the parent alone.

Experiment [1] has as its target T1, 5-lipoxygenase (Cavia porcellus, UniProt A0A286X958).
T1 sequence (A0A286X958 1-674): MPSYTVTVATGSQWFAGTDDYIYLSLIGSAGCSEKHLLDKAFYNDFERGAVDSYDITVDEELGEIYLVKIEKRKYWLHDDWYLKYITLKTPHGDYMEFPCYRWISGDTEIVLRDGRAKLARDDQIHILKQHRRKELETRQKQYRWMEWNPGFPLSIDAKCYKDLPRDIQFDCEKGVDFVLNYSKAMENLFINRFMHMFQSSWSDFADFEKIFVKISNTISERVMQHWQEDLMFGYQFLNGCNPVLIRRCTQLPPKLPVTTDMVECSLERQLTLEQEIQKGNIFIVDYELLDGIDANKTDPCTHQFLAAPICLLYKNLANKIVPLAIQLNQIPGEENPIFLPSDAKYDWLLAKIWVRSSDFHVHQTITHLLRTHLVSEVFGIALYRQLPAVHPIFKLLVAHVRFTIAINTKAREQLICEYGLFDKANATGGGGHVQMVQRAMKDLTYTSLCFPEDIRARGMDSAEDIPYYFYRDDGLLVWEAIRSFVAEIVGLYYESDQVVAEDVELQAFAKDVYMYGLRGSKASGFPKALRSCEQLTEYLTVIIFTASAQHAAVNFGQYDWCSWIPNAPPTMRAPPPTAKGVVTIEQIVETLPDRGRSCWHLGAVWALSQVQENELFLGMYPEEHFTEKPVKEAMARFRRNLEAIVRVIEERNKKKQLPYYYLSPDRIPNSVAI
Description: Enzyme assay using the 105,000 x g supernate of sonicated polymorphonuclear leukocytes: production of 5-HETE, 5,12-diHETE and LTB. It counts as biochemical. As to conditions: supernate enzyme of guinea pig polymorphonuclear leukocytes, 5 min at 30°C, 1 mM calcium chloride, read-out: concentration for a 50% inhibition of 5-lipoxygenase, i.e. IC50. On the procedure: Further, in another assay system, the inhibitory activity of compounds of the present invention on 5-lipoxygenase only was also evaluated by using an enzyme prepared from polymorphonuclear leukocytes of guinea pig. Guinea pig was treated by casein and harvested polymcrphonuclear leukocytes from cavity were sonicated, followed by the centrifugation at 105,000 x g. The supernate was used as an enzyme throughout this work. The supernate (100 - 500 µg of protein) was incubated for 5 minutes at 30°C with [^14C] arachidonic acid and 1 mM calcium chloride in the presence or in the absence of test compound. The reaction was terminated by the addition of ether.

The target of experiment [2] is T1, 5-lipoxygenase. Briefly: Screening assay using polymorphonuclear leukocytes: production of 5-HETE from [14C] arachidonic acid. It counts as cell-based. The note with it: intact polymorphonuclear leukocytes from guinea pig, 5 min preincubation and 5 min incubation at 37°C, read-out: concentration for 50% inhibition on 5-lipoxygenase. How it is done: The experiments for screening using polymorphonuclear leukocytes were carried out as follows: The reaction mixture (0.1 ml) containing 5 µmole of potassium phosphate at pE 7.4, 0.1 µmole of calcium chloride, polymorphonuclear leukocytes prepared from guinea pigs (4 x 10^7 cells) and test compound, was preincubated for 5 minutes at 37°C. The reaction was started by the addition of [^14C) arachidonic acid (2.2 x 10^5 dpm, 1.8 nmole), followed by the incubation at 37°C for 5 minutes. The reaction was terminated by the addition of 0.3 ml of a mixture of ether/methanol/lM citric acid (30/4/1). The organic phase (20 µl) was applied to silica gel plate. Thin layer chromatography was performed to separate each product with solvent system of ether/petroleum ether/acetic acid (85/15/0.1).
Activity of 5-lipoxygenase and cyclooxygenase were calculated from the measurements of the production of 5-HETE, and 12L-hydroxy-5,8,lC-heptatrienoic acid (i.e. HHT) or thromboxane B2 (i.e. TXB2), respectively [it has been known that HHT and TXB2 are the last products of the system concerning cyclooxygenase in the arachidonate cascade]. The concentrations for 50% inhibitions on 5-lipoxygenase and on cyclooxygenase were evaluated by using the concentration of compounds of the present invention required 50% inhibitions on the productions of 5-HETE, and HHT or TXB2, respectively.

As to `Nc1c(O)c(Cl)cc(C(=O)c2ccc(Cl)cc2)c1O` [2-Amino-4-chloro-6-(4-chlorobenzoyl)resorcinol hydrochloride], the IC50 at 5-lipoxygenase [1] was determined as 2.63 µM.

Regarding `COC(c1ccc(Cl)cc1)c1cc(Cl)c(O)c(N)c1O` (centres unmarked) [2-Amino-4-chloro-6-(a-methoxy-4-chlorobenzyl)resorcinol hydrochloride], at 5-lipoxygenase [1], the IC50 turned out to be 2 µM.

Take `Nc1c(O)ccc(C(=O)c2ccccc2)c1O` [2-Amino-6-benzoylresorcinol hydrochloride]: the IC50 at 5-lipoxygenase [1] was 0.4 µM; on 5-lipoxygenase [2] it was 0.3 µM.

On to `Nc1cc(C(=O)c2ccccc2)c(O)cc1O` [4-Amino-6-benzoylresorcinol hydrochloride], for which the IC50 on 5-lipoxygenase [1] was found to be 6.67 µM.
